Experimental data reported in the RepoRT retention time repository (doi:10.1016/j.foodchem.2021.129757).

assay: RP, Waters ACQUITY UPLC HSS T3, 100 × 2.1 mm, 1.8 µm, 30 °C, 0.4 mL/min, estimated dead time 0.55 min; A: water + 0.1% formic acid, pH 3; B: acetonitrile + 0.1% formic acid, pH 3; gradient (min/%B) 0/0 2/0 15/100 22/100 22.1/0 26/0; settings: stereoisomer not certain

Compound | LC retention time
O=C(C=CC=Cc1ccc2c(c1)OCO2)N1CCCCC1 [Piperine] | 13.7 min
O=c1cc(-c2ccc(O)cc2)oc2c(C3OC(CO)C(O)C(O)C3O)c(O)cc(O)c12 (stereo not drawn) [Vitexin] | 9.12 min
COc1ccc(-c2cc(=O)c3c(OC)c(OC)c(OC)cc3o2)cc1OC [Sinensetin] | 12.6 min
COc1ccc(-c2oc3cc(O)cc(O)c3c(=O)c2O)cc1 [Kaempferide] | 13.4 min
COc1cc(CNC(=O)CCCCC=CC(C)C)ccc1O [Capsaicin] | 13.7 min
COc1ccc(-c2cc(=O)c3c(OC)c(OC)c(OC)c(OC)c3o2)cc1OC [Nobiletin] | 13.2 min
COc1c2ccoc2cc2oc(=O)ccc12 [Bergapten] | 12.6 min
COc1cc(C2CC(=O)c3c(O)cc(O)cc3O2)ccc1O (stereo not drawn) [Homoeriodictyol] | 11.7 min
Cn1c(=O)[nH]c2nc[nH]c2c1=O [1-Methylxanthine] | 6.63 min
CC(C)CC1NC(=O)C2CCCN2C1=O (stereo not drawn) [Cyclo(leucyl-prolyl)] | 9.2 min
CCCC(C(=O)O)c1cccc(O)c1 (stereo not drawn) [3-Hydroxyphenylvaleric acid] | 10.9 min
O=C(O)CCCCc1ccc(O)c(O)c1 [5-(3,4 dihydroxyphenyl)valeric acid] | 9.86 min
CC1CCC2(NC1)OC1CC3C4CCC5CC(O)CCC5(C)C4CCC3(C)C1C2C (stereo not drawn) [Tomatidine] | 11.8 min
OCC1OC(Oc2ccc(O)cc2)C(O)C(O)C1O (stereo not drawn) [Arbutin] | 1.34 min
CN1CCCCC1C(=O)O (stereo not drawn) [1-Methylpiperidine-2-carboxylic acid] | 1.1 min
COc1cc(O)c2c(=O)c(O)c(-c3ccc(O)c(O)c3)oc2c1 [Rhamnetin] | 12.5 min
Oc1cc(O)c2c(c1)OC(c1ccc(O)c(O)c1)C(O)C2c1c(O)cc(O)c2c1OC(c1ccc(O)c(O)c1)C(O)C2 (stereo not drawn) [Procyanidin B2] | 8.35 min
COc1ccc(-c2coc3cc(O)ccc3c2=O)cc1 [Formononetin] | 12.4 min
CC(C)=CCCC(C)=CCOc1c2ccoc2cc2oc(=O)ccc12 [Bergamottin] | 17.4 min
O=Cc1ccc[nH]1 [1H-pyrrole-2-carboaldehyde] | 7.8 min
COc1ccc(-c2cc(=O)c3c(O)cc(O)cc3o2)cc1O [Diosmetin] | 11.8 min
COc1ccc(-c2coc3cc(O)cc(O)c3c2=O)cc1 [Biochanin A] | 13.5 min

assay: RP, Agilent ZORBAX Eclipse XDB-C18, 100 × 2.1 mm, 1.8 µm, 50 °C, 0.4 mL/min, estimated dead time 0.55 min; A: water + 0.1% formic acid, pH 3; B: methanol + 0.1% formic acid, pH 3; gradient (min/%B) 0/2 10/100 14.5/100 14.51/2 16.5/2; settings: stereoisomer not certain

Compound | LC retention time
O=C(O)CCCCC(=O)O [Adipic acid] | 2.63 min
O=C(O)Cc1cc(O)cc(O)c1 [3,5-Dihydroxyphenylacetic acid] | 2.21 min
O=C(O)CNC(=O)C=Cc1ccccc1 [Cinnamoylglycine] | 4.75 min
CC1NCCc2cc(O)c(O)cc21 (stereo not drawn) [Salsolinol] | 1.57 min
O=C([O-])CCc1ccccc1O [3-(2-Hydroxyphenyl)propionic acid] | 4.8 min
COc1c(O)cccc1O [2-Methoxyresorcinol] | 2.68 min
CC1=C(/C=C/C(C)=C/C=C/C(C)=C/C=C/C=C(C)/C=C/C=C(C)/C=C/C2=C(C)CCCC2(C)C)C(C)(C)CCC1 [beta-carotene] | 13.8 min
C=C1CCC(O)CC1=CC=C1CCCC2(C)C1CCC2C(C)C=CC(C)C(C)C (stereo not drawn) [Ergocalciferol] | 11.8 min
O=C([O-])C(O)c1ccccc1 (stereo not drawn) [Mandelic acid] | 3.01 min
NCC(O)c1ccccc1 (stereo not drawn) [2-Amino-1-phenylethanol] | 1.42 min
O=C(O)Cc1cc(O)ccc1O [Homogentisic acid] | 1.82 min
